Data from patent US7786141B2 (Vertex Pharmaceuticals Incorporated, priority 2004, dated 2010).

Columns and labels:
M1 muscarinic receptor = target: T1, M1 muscarinic receptor (Homo sapiens, UniProt P11229); assay: Functional mobilization of intracellular calcium (FLIPR) in M1-CHO cells; format: cell-based; details: M1 receptor, calcium mobilization; for Emax: read-out: M1 Efficacy
T1 construct: expressed in transfected cells; host or cells: CHO (M1-CHO)
T1 sequence (P11229 1-460): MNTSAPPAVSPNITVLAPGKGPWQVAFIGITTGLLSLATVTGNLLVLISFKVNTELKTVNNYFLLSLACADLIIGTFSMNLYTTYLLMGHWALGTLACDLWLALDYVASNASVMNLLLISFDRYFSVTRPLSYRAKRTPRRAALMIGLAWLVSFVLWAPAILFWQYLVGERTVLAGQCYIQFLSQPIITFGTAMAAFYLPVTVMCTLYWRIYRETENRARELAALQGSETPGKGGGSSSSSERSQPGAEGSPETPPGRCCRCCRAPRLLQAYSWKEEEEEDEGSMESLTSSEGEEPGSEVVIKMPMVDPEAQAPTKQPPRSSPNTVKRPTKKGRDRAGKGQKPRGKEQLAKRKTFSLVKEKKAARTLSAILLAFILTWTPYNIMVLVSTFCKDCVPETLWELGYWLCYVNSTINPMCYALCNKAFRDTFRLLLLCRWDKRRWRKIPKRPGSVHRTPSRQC
How it was run: (§1)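 Measured via Fluo-3 fluorescence on a FLIPR, CHO cells with either muscarinic subtype received compound in 0.5% DMSO. Antagonism was assessed after 15 min pre-incubation followed by carbachol at each subtype's EC80; agonism from compound addition alone.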

M4 muscarinic receptor = target: T2, M4 muscarinic receptor (Homo sapiens, UniProt P08173); assay: Functional mobilization of intracellular calcium (FLIPR) in M4-CHO cells; format: cell-based; details: M4 receptor, calcium mobilization; for Emax: read-out: M4 Efficacy
T2 construct: expressed in transfected cells; host or cells: CHO (M4-CHO)
T2 sequence (P08173 1-479): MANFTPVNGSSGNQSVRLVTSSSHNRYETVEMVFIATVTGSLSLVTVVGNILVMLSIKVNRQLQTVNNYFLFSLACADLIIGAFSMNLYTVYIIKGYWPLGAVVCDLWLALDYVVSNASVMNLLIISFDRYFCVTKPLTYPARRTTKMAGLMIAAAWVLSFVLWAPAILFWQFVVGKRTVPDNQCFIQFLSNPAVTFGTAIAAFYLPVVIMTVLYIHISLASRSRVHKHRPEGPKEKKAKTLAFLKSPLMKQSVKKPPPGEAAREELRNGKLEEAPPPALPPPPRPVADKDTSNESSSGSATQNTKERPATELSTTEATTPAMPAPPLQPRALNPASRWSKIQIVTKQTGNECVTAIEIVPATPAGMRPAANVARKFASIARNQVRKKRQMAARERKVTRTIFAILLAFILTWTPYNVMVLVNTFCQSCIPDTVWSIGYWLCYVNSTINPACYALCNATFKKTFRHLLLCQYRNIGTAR
How it was run: as §1

SMILES	M1 Activity (M1 muscarinic receptor)	Emax (M1 muscarinic receptor) [%]	M4 Activity (M4 muscarinic receptor)	Emax (M4 muscarinic receptor) [%]
CC(=O)N[C@H]1CC2(CCN(C3C[C@H]4CC[C@@H]3C4)CC2)c2ccccc21 (some centres unmarked) [compound 158]	xxx (activity was measured to be less than 0.1 μM)	> 85	x (activity was measured to be greater than 1.0 μM)	> 85
CC(=O)NC1CC2(CCN(C3CCCCCC3)CC2)c2ccccc21 (centres unmarked) [compound 159]	xx (activity was measured to be between 0.1 μM and 1.0 μM)	> 85	x (activity was measured to be greater than 1.0 μM)	> 85
CC(C)COC(=O)N1C2CCC1CC(N1CCC3(CC1)COc1ccc(F)cc13)C2 (centres unmarked) [compound 160]	xxx (activity was measured to be less than 0.1 μM)	> 85	xx (activity was measured to be between 0.1 μM and 1.0 μM)	> 85
CC(=O)NC1CC2(CCN(C[C@H]3C[C@H]4CC[C@H]3C4)CC2)c2ccccc21 (some centres unmarked) [compound 161]	xx (activity was measured to be between 0.1 μM and 1.0 μM)	> 85	x (activity was measured to be greater than 1.0 μM)	> 85
COCCOC(=O)N1C2CCC1CC(N1CCC3(CC1)CN(C(=O)O[C@@H]1CCOC1)c1ccc(F)cc13)C2 (some centres unmarked) [compound 162]	xxx (activity was measured to be less than 0.1 μM)	65 to 85	x (activity was measured to be greater than 1.0 μM)	> 85
CC(=O)N1CC2(CCN(CC3=CCCCC3)CC2)c2cc(F)ccc21 [compound 163]	xxx (activity was measured to be less than 0.1 μM)	65 to 85	xx (activity was measured to be between 0.1 μM and 1.0 μM)	> 85
Clc1ccc2c(c1)C1(CCO2)CCN(C[C@@H]2C[C@H]3C=C[C@H]2C3)CC1 [compound 164]	xx (activity was measured to be between 0.1 μM and 1.0 μM)	> 85	x (activity was measured to be greater than 1.0 μM)	> 85
CCOC(=O)N1CCC(N2CCC3(CC2)CN(C(C)=O)c2ccc(-c4ccsc4)cc23)CC1 [compound 165]	x (activity was measured to be greater than 1.0 μM)	65 to 85	x (activity was measured to be greater than 1.0 μM)	> 85
CC(C)OC(=O)N1C2CCC1CC(N1CCC3(CC1)CN(C(=O)OC1CCC1)c1ccc(F)cc13)C2 (centres unmarked) [compound 166]	xxx (activity was measured to be less than 0.1 μM)	> 85	x (activity was measured to be greater than 1.0 μM)	> 85
CCOC(=O)N1C2CCC1CC(N1CCC3(CC1)CN(C(=O)OC)c1ccc(F)cc13)C2 (centres unmarked) [compound 167]	xxx (activity was measured to be less than 0.1 μM)	65 to 85	xx (activity was measured to be between 0.1 μM and 1.0 μM)	> 85
CC(=O)N1CC2(CCN(C3CCCN(C(=O)OCCF)CC3)CC2)c2cc(F)ccc21 (centres unmarked) [compound 168]	xx (activity was measured to be between 0.1 μM and 1.0 μM)		xx (activity was measured to be between 0.1 μM and 1.0 μM)	> 85
CCOC(=O)N1CCC(N2CCC3(CC2)CN(C(=O)N(C)c2ccccc2)c2ccc(F)cc23)CC1 [compound 169]	xxx (activity was measured to be less than 0.1 μM)	65 to 85	x (activity was measured to be greater than 1.0 μM)	> 85
CC(C)OC(=O)N1C2CCC1CC(N1CCC3(CC1)CN(S(C)(=O)=O)c1ccc(F)cc13)C2 (centres unmarked) [compound 170]	xx (activity was measured to be between 0.1 μM and 1.0 μM)	65 to 85	x (activity was measured to be greater than 1.0 μM)	> 85
CC(=O)N[C@@H]1CC2(CCN([C@H]3C[C@@H]4CC[C@H]3C4)CC2)c2ccccc21 [compound 171]	xx (activity was measured to be between 0.1 μM and 1.0 μM)	> 85	x (activity was measured to be greater than 1.0 μM)	65 to 85
CC(=O)N1CC2(CCN(C3CCN(C(=O)OCCF)CC3)CC2)c2cc(F)ccc21 [compound 172]	x (activity was measured to be greater than 1.0 μM)	> 85	x (activity was measured to be greater than 1.0 μM)	65 to 85
CCOC(=O)N1CCC(N2CCC3(CC2)CN(C(=O)OC)c2ccc(F)cc23)CC1 [compound 173]	xxx (activity was measured to be less than 0.1 μM)	65 to 85	xx (activity was measured to be between 0.1 μM and 1.0 μM)	> 85
CC(=O)N1CC2(CCN(C3CC4CCC(C3)N4C(=O)OC3CCC3)CC2)c2cc(F)ccc21 (centres unmarked) [compound 174]	xxx (activity was measured to be less than 0.1 μM)	> 85	x (activity was measured to be greater than 1.0 μM)	65 to 85
Fc1ccc2c(c1)C1(CCN([C@@H]3C[C@@H]4CC[C@H]3C4)CC1)CO2 [compound 175]	xxx (activity was measured to be less than 0.1 μM)	65 to 85	xx (activity was measured to be between 0.1 μM and 1.0 μM)	65 to 85
CCOC(=O)N1CCC(CN2CCC3(CC2)COc2ccc(Cl)cc23)CC1 [compound 176]	xx (activity was measured to be between 0.1 μM and 1.0 μM)	> 85	xx (activity was measured to be between 0.1 μM and 1.0 μM)	65 to 85
CCOC(=O)N1CCC(N2CCC3(CC2)CN(C(C)=O)c2ccc(-c4ccc(S(C)(=O)=O)cc4)cc23)CC1 [compound 177]	xxx (activity was measured to be less than 0.1 μM)	65 to 85	xx (activity was measured to be between 0.1 μM and 1.0 μM)	65 to 85
Clc1ccc2c(c1)C1(CCO2)CCN(C2CCOCC2)CC1 [compound 178]	xx (activity was measured to be between 0.1 μM and 1.0 μM)	> 85	x (activity was measured to be greater than 1.0 μM)	65 to 85
CCOC(=O)N1C2CCC1CC(N1CCC3(CC1)CN(C(=O)C1CCC1)c1ccc(F)cc13)C2 (centres unmarked) [compound 179]	xx (activity was measured to be between 0.1 μM and 1.0 μM)	> 85	x (activity was measured to be greater than 1.0 μM)	65 to 85
CC(=O)NC1CC2(CCN(CC3CC4C=CC3C4)CC2)c2ccccc21 (centres unmarked) [compound 180]	xxx (activity was measured to be less than 0.1 μM)	65 to 85	xxx (activity was measured to be less than 0.1 μM)	65 to 85
Clc1ccc2c(c1)C1(CCN([C@H]3C[C@@H]4CC[C@H]3C4)CC1)CO2 [compound 181]	xx (activity was measured to be between 0.1 μM and 1.0 μM)	65 to 85	x (activity was measured to be greater than 1.0 μM)	65 to 85
COC(=O)N1CCC(CN2CCC3(CC2)C[C@H](NC(C)=O)c2ccccc23)CC1 [compound 182]	x (activity was measured to be greater than 1.0 μM)	65 to 85	x (activity was measured to be greater than 1.0 μM)	65 to 85
Fc1ccc2c(c1)C1(CCN(CC3CC4C=CC3C4)CC1)CN2 (centres unmarked) [compound 183]	xx (activity was measured to be between 0.1 μM and 1.0 μM)	65 to 85	x (activity was measured to be greater than 1.0 μM)	65 to 85
CC(=O)N[C@H]1CC2(CCN(CC3CCCCC3)CC2)c2ccccc21 [compound 184]	xx (activity was measured to be between 0.1 μM and 1.0 μM)	> 85	x (activity was measured to be greater than 1.0 μM)	65 to 85
